Source: EP1097139B1, “QUINOLINE DERIVATIVES” (Active Biotech AB, priority 1998, dated 2000)

Experiments:
[1] = system: female rats during pregnancy; assay: Teratogenic effects in the rat; assay type: in vivo; settings: dose of 6 mg/kg/day, subcutaneously, day 8 to 14 of pregnancy
Source text: Teratogenic effects in the rat.
The compounds were administrated subcutaneously to female rats during pregnancy, i.e., day 8 to 14 of pregnancy. The rats were caesarean sectioned and necropsied on day 20 after fertilisation. The foetuses were examined for external and internal abnormalities.

[2] = system: female rats during pregnancy; settings: no dose given, background statement; cited from earlier work
beagle dogs = assay: Beagle Pain Syndrome (BPS); assay type: in vivo; settings: different breeds of beagle dogs
Experimental: The disease is reflected by clinical and laboratory manifestations justifying BPS as a model for the flu-like syndrome induced by roquinimex in man.
Beagle Pain Syndrome (BPS).
The compounds were administrated intravenously to beagle dogs. The dosage was given for five consecutive days. The dogs were evaluated for clinical and laboratory signs of the pain syndrome, e.g., fever, increased erythrocyte sedimentation rate (ESR), alkaline phosphate (AP), induction of acute phase proteins and vasculitis

[3] = system: acute experimental autoimmune encephalomyelitis (aEAE); assay: Acute experimental autoimmune encephalomyelitis (aEAE) inhibition; assay type: in vivo; settings: at ≥5 mg/kg, mice, treatment control
man = settings: e.g. a flu-like syndrome; cited from earlier work

| SMILES | Teratogenic effects in the rat [1] | teratogenic in the rat [2] | induction of the Beagle Pain Syndrome (BPS) (beagle dogs) | inhibition of acute experimental autoimmune encephalomyelitis (aEAE) [3] | side effects in man (man) |
| --- | --- | --- | --- | --- | --- |
| CCN(C(=O)c1c(O)c2c(SC)cccc2n(C)c1=O)c1ccccc1 [Compound A, N-ethyl-N-phenyl-1,2-dihydro-4-hydroxy-5-methylthio-1-methyl-2-oxo-quinoline-3-carboxamide] | non-teratogenic |  |  |  |  |
| CSc1cccc2c1c(O)c(C(=O)N(C)c1ccccc1)c(=O)n2C [N-methyl-N-phenyl-1,2-dihydro-4-hydroxy-5-methylthio-1-methyl-2-oxo-quinoline-3-carboxamide] | teratogenic |  |  |  |  |
| CSc1cccc2c1c(O)c(C(=O)N(C)c1ccc(F)cc1F)c(=O)n2C [Compound B, N-methyl-N-(2,4-difluoro-phenyl)-1,2-dihydro-4-hydroxy-5-methylthio-1-methyl-2-oxo-quinoline-3-carboxamide] | non-teratogenic |  |  |  |  |
| CN(C(=O)c1c(O)c2ccccc2n(C)c1=O)c1ccccc1 [Roquinimex, roquinimex] |  | teratogenic | induce the Beagle Pain Syndrome (BPS) | more than 50% | induces dose-limiting side effects |
